Source: a melting point compilation (Tetko et al.; mined from patent text by program, amines drawn as free bases though some values may be those of a salt)

Point of comparison: `Cn1nc(-c2ccc(N)c([N+](=O)[O-])c2)c2ccccc21`, melting point 231 °C. Against it:
- NC(=O)c1c(C(=O)O)cccc1[N+](=O)[O-] — lower, 188 °C
- C=C(C)C1CCC2C3C=CC4=CC(=O)CCC4(C)C3C(O)CC12C (stereo unspecified) — lower, 153 to 155 °C
- CN1CCN(C2=Nc3cc(Cl)cc4ccn(c34)-c3ccccc32)CC1 — lower, 184 to 186 °C
- O=C(CCc1ccc(Cl)cc1Cl)NC1CC(=O)c2ccccc2NC1=O (stereo unspecified) — higher, 234 to 236 °C
- CCOC(=O)C(CBr)=C1C(=N)CCCC1=O — lower, 170 to 175 °C
- CCOC(=O)NC(=O)c1c(Cl)ccc2c(C(F)(F)F)c(OC)ccc12 — lower, 169 to 171 °C
- CCC(NC(=O)CC(F)(F)F)c1ccc(Cl)c2nc3n(c12)CCCN3c1ccc(Cl)cc1Cl (stereo unspecified) — higher, 285 to 290 °C
- COc1ccc(NC(=O)c2ccc(F)c(F)c2)cc1NS(=O)(=O)c1ccc(N)cc1 — not separable, 229 to 231 °C
- Cn1c(-c2ccccc2S(C)=O)nc2ccccc21 (stereo unspecified) — lower, 157 to 159 °C
- Cc1cncc(C)c1-c1c(C)cc(N=C(c2ccccc2)c2ccccc2)cc1C — lower, 44 to 45 °C
- COc1ccccc1N1CCN(c2nc3c(cc2F)c(=O)c(C(=O)O)cn3-c2ccc(F)cc2)CC1 — higher, 272 to 273 °C
- CCCCc1ccc(Oc2ccc(C#CC(C)N(O)C(N)=O)o2)cc1 (stereo unspecified) — lower, 116 to 118 °C
- COCC#Cc1ncn2c1CN(C)C(=O)c1cc(F)ccc1-2 — lower, 146 to 147 °C
- COC(=O)c1ccc2c(c1)NC(=O)c1cccnc1N2 — higher, 344 to 349 °C
- COC(=O)c1cc2cc(OCCn3ccnc3)ccc2s1 — lower, 127 to 129 °C
- Cc1nn(-c2ccc(C(F)(F)F)cn2)cc1CCCOc1cc(CCC(=O)O)n(-c2ccccc2)n1 — lower, 125 to 126 °C
- CCN(C(=O)N1CCN(c2cc(OC)cc(OC)c2)CC1)c1nc2ccccc2nc1OC — lower, 129 to 130 °C
- OCC1COC(Cn2cncn2)(c2ccc(Oc3ccccc3)cc2)O1 (stereo unspecified) — lower, 111 to 112 °C
- CCCN(CCC)C(=O)/C=C/CSc1nc(N)cc(Cl)n1 — lower, 139 to 142 °C
- N#Cc1ccc(C#CCCC(=O)O)cc1 — lower, 149 to 152 °C
- CN1C(=O)CCC2(C)C3CCC4(C)C(OC(=O)NCc5ccccc5)CCC4C3CCC12 (stereo unspecified) — lower, 216 to 217 °C
- CCOC(=O)Nc1nc2ccccc2c2c1nc(CC)n2CCCCNS(C)(=O)=O — lower, 185 to 187 °C
- Cc1cc(C)cc(CC(C)(C)NCC(O)c2cc(O)cc3c2OCC(=O)N3)c1 (stereo unspecified) — higher, 235 to 238 °C
- O=C1CCCN1C(=O)Oc1ccccc1Cl — lower, 92 to 93 °C
- S=c1ncc2ccccc2[nH]1 — higher, 234 to 235 °C
- CC1CC(NC(=O)C(F)(F)F)=NN1c1ccc(Cl)c(Cl)c1 (stereo unspecified) — lower, 150 to 152 °C
- CC(=O)c1c(C)c2cnc(Nc3ccc(N4CCNCC4)nc3)nc2n(C2CCCC2)c1=O — lower, 125 °C
- C=CC[C@@H]1C[C@@H](COc2ccc(-c3ccc(C#N)cc3)cc2)N(CCCC2CCCCC2)C1=O — lower, 157 to 159 °C
- O=C(NC(Oc1ccc(Cl)cc1)C(Cl)(Cl)Cl)c1ccccc1O (stereo unspecified) — lower, 116 to 117 °C
- CNc1c(C)cc([N+](=O)[O-])cc1C — lower, 99 °C
- CCCC(=O)Nc1cc(Sc2ccccc2)ccc1NC(=NC(=O)OC)NC(=O)OC — lower, 180 °C
- COc1ccc(S)nn1 — lower, 198 to 200 °C
- CCCc1nn(C)c2c(=O)[nH]c(-c3cc(S(=O)(=O)N4C[C@@H](C)N[C@@H](C)C4)ccc3OCC)nc12 — lower, 202 to 203 °C
- Cc1cn(C(C)(C)C(N)=O)nc1-c1ccccc1 — lower, 105 to 106 °C
- CC(C)(C)OC(=O)NCc1ccc(CNC(=O)[C@@H](CCCNC(N)=N[N+](=O)[O-])NC(=O)C(c2ccccc2)c2ccccc2)cc1 — lower, 198 °C
- CC(C)NC(=O)NCC(=O)O — lower, 178 °C
- CC(=O)C(=Cc1ccc(C=O)c([N+](=O)[O-])c1)C(C)=O — lower, 102 to 104 °C
- CC1=C(c2ccc(O)cc2)C(=O)c2cc(O)ccc21 — lower, 125 to 129 °C
- Cc1cc2n(c(=O)n1)C(C)N=C2 (stereo unspecified) — not separable, 231 to 232 °C
- CCCCCCCCCCCCCCCCOC(=O)Nc1ccc(NC(=O)NS(=O)(=O)c2ccc3ccccc3c2)cc1 — lower, 183 °C
- COC1CCN2C(=O)c3cccc([N+](=O)[O-])c3C2C1 (stereo unspecified) — lower, 132 to 134 °C
- CCCC(=O)c1cc2c(=O)cc(C(=O)O)[nH]c2c(C)c1C — higher, 267 to 269 °C
- CCOC(=O)c1nnc2n1-c1sc(Cl)cc1C(c1ccccc1[N+](=O)[O-])=NC2 — lower, 143 to 145 °C
- c1ccc2c(c1)C[C@H]1Nc3ccccc3[C@@H]21 (relative stereo) — lower, 85 to 86 °C
- CS(=O)(=O)NC(=O)CCCCBr — lower, 88 to 89 °C
- CC(=O)OCc1cn(C(c2ccccc2)(c2ccccc2)c2ccccc2)cn1 — lower, 133 to 134 °C
- COc1ccc(C2CNC(=O)C2)cc1OCCC(C)N1CCN(c2ccccc2)CC1 (stereo unspecified) — lower, 88 to 90 °C
- CCc1cc(Nc2ccc(-c3ccccc3C#N)cc2)n2nccc2n1 — higher, 247 to 248 °C
- CC(C)c1nn2ccccc2c1C(=O)C1CCCC1 — lower, 106 to 110 °C
- Cc1nc(N2CCN(CC3CC3)C2=O)sc1C(N)=O — lower, 198 to 200 °C
